Measured values as given in patent US20240239788A1, “SMALL MOLECULE INHIBITORS OF KRAS G12D MUTANT” (Merck Sharp & Dohme LLC, priority 2021, published 2024).
Counter-ions that a name gives are not always drawn.

Biological target: KRAS protein containing G12D mutation (Homo sapiens (Human), UniProt P01116, G12D)
Experiment: SOS-catalyzed nucleotide exchange assay (GNE), TR-FRET
Format: biochemical
Details: biotinylated KRAS G12D, SOS and GTP, 60-minute incubation
Procedure: Compounds are added to this complex and then after a 60-minute incubation time the mixture is treated with SOS and unlabeled GTP. Small molecule inhibitors stabilize the Bodipy-GDP complex whereas the untreated protein rapidly exchanges Bodipy-GDP for unlabeled GTP resulting in reduced TR-FRET signal.
This solution is referred to as biotinylated KRAS G12D stock solution.

Sequence of KRAS protein containing G12D mutation (P01116 other isoform, or with tags, fused parts or gaps G12D (already in the parent)): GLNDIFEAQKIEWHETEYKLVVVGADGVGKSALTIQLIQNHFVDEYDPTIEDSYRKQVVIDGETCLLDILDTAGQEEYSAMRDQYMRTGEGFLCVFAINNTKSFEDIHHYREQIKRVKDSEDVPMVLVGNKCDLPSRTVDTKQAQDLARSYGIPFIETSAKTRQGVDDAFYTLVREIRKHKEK

`C#Cc1cccc2cc(O)cc(-c3c(F)cc4c(N5CC6(C)CCC(C)(C5)N6)nc(OC[C@@]56CCCN5C[C@H](F)C6)nc4c3F)c12` [Example 124, 4-(4-(1,5-dimethyl-3,8-diazabicyclo[3.2.1]octan-3-yl)-6,8-difluoro-2-(((2R,7aS)-2-fluorotetrahydro-1H-pyrrolizin-7a(5H)-yl)methoxy)quinazolin-7-yl)-5-ethynylnaphthalen-2-ol] was tested. Which IC50 did it give?
The IC50 was 1.21 nM.

Which IC50 does the source give for `C[C@]12CC[C@H](CN(c3nc(OC[C@@]45CCCN4C[C@H](F)C5)nc4c(F)c(-c5cc(F)cc6cccc(Cl)c56)c(F)cc34)C1)N2` [Ex. 158, 7-(8-chloro-3-fluoro-naphthalen-1-yl)-6,8-difluoro-2-(((2R,7aS)-2-fluorotetrahydro-1H-pyrrolizin-7a(5H)-yl)-methoxy)-4-((1S,5R)-1-methyl-3,8-diaza-bicyclo[3.2.1]octan-3-yl)quinazoline] here?
The IC50 was 1280 nM.

Which IC50 does the source give for `CN(CC(C)(C)O)CC1(COc2nc(N3C[C@H]4CC[C@@](C)(C3)N4)c3cc(F)c(-c4cc(O)cc5ccccc45)c(F)c3n2)CC1` [Ex. 226, 4-(6,8-difluoro-2-((1-(((2-hydroxy-2-methylpropyl)(methyl)amino)methyl)cyclopropyl)methoxy)-4-((1S,5R)-1-methyl-3,8-diazabicyclo[3.2.1]octan-3-yl)quinazolin-7-yl)naphthalen-2-ol] here?
Its IC50 is 55.1 nM.

With `CN(C)C[C@@]1(COc2nc(N3C[C@H]4CC[C@@H](C3)N4)c3cc(F)c(-c4c(C(F)(F)F)c(Cl)cc5cnn(C)c45)c(F)c3n2)CC1(F)F` (single isomer, unassigned) [201a] as the compound, how does the IC50 read?
The IC50 was 11100 nM.

With `C[C@]12CC[C@H](CN(c3nc(OC[C@@H]4CCCN4CCO)nc4c(F)c(-c5cc(O)cc6ccccc56)c(F)cc34)C1)N2` [Ex. 225, 4-(6,8-difluoro-2-(((S)-1-(2-hydroxyethyl)pyrrolidin-2-yl)methoxy)-4-((1S,5R)-1-methyl-3,8-diazabicyclo[3.2.1]octan-3-yl)quinazolin-7-yl)naphthalen-2-ol] as the compound, how does the IC50 read?
The IC50 was 69.8 nM.

`Cc1nc(N)cc(-c2c(Cl)cc3c(N4C[C@H]5CC[C@@](C)(C4)N5)nc(OCC4(CN5CCOCC5)CC4)nc3c2F)c1C(F)(F)F` [Ex. 138, 4-(6-chloro-8-fluoro-4-((1S,5R)-1-methyl-3,8-diazabicyclo[3.2.1]octan-3-yl)-2-((1-(morpholinomethyl)cyclopropyl)methoxy)quinazolin-7-yl)-6-methyl-5-(trifluorometh-yl)pyridin-2-amine] was tested. Which IC50 did it give?
Its IC50 is 361 nM.

For `C#Cc1c(F)ccc2ccc(F)c(-c3c(F)cc4c(N5CC6CC[C@@](C)(C5)N6)nc(OC[C@@]56CCCN5C[C@H](F)C6)nc4c3F)c12` (single isomer, unassigned) [246b], which IC50 is on record?
The IC50 was 165 nM.

`Cc1cc(N)nc(-c2c(F)cc3c(N4CC5CC[C@@](C)(C4)N5)nc(OC[C@@]45CCCN4C[C@H](F)C5)nc3c2F)c1C(F)(F)F` (single isomer, unassigned) [Ex. 200b] was tested. Which IC50 did it give?
Its IC50 is 1130 nM.

With `C[C@]12CC[C@H](CN(c3nc(OCC4(N)CCOC4)nc4c(F)c(-c5cc(O)cc6ccccc56)c(F)cc34)C1)N2` (stereo partly drawn) [Example 113, 4-(2-((3-amino-tetrahydrofuran-3-yl)methoxy)-6,8-difluoro-4-((1S,5R)-1-methyl-3,8-diazabicyclo [3.2.1]octan-3-yl)quinazolin-7-yl)naphthalen-2-ol, TFA] as the compound, how does the IC50 read?
The IC50 was 697 nM.

`NC1(COc2nc(N3CC4CCC(C3)N4)c3cc(Cl)c(-c4cc(O)cc5ccccc45)c(F)c3n2)CCOC1` (stereo not shown) [Example 111, 4-(2-((3-amino-tetrahydrofuran-3-yl)methoxy)-4-(3,8-diazabicyclo[3.2.1]octan-3-yl)-6-chloro-8-fluoroquinazolin-7-yl) naphthalen-2-ol, TFA] was tested. Which IC50 did it give?
Its IC50 is 2470 nM.

Which IC50 does the source give for `Cc1cccc2cc(O)cc(-c3c(F)cc4c(N5CC6CC[C@@](C)(C5)N6)nc(OC[C@@]56CCCN5C[C@H](F)C6)nc4c3F)c12` (single isomer, unassigned) [Ex. 179a] here?
The IC50 was 5.07 nM.

Which IC50 does the source give for `C#Cc1cccc2cc(O)cc(-c3c(F)cc4c(N5C[C@H]6CC[C@@](C)(C5)N6)nc(OC)nc4c3F)c12` (single isomer, unassigned) [Ex. 171b, TFA] here?
The IC50 was 3470 nM.

For `CN1[C@@H]2CC[C@H]1CN(c1nc(OC[C@@]34CCCN3C[C@H](F)C4)nc3c(F)c(-c4cc(O)cc5cccc(Cl)c45)c(F)cc13)C2` [Ex. 161, 5-chloro-4-(6,8-difluoro-2-(((2R,7aS)-2-fluorotetrahydro-1H-pyrrolizin-7a(5H)-yl)-methoxy)-4-((1R,5S)-8-methyl-3,8-diaza-bicyclo[3.2.1]octan-3-yl)quinazolin-7-yl)-naphthalen-2-ol], which IC50 is on record?
Its IC50 is 591 nM.

Which IC50 does the source give for `Cc1nc(N)cc(-c2c(F)cc3c(N4C[C@H]5CC[C@@](C)(C4)N5)nc(OCC4(CN5CCOCC5)CC4)nc3c2F)c1C(F)(F)F` (single isomer, unassigned) [Ex. 139a] here?
The IC50 was 1670 nM.

For `Cc1cc(N)nc(-c2c(Cl)cc3c(N4CC5CCC(C4)N5)nc(OC[C@@]45CCCN4C[C@H](F)C5)nc3c2F)c1CC(F)(F)F` (single isomer, unassigned) [Ex. 157a], which IC50 is on record?
The IC50 was 113 nM.

For `Cc1cc2[nH]nc(C)c2c(-c2c(F)cc3c(N4CC5CCC(C4)N5)nc(OC[C@@]45CCCN4C[C@H](F)C5)nc3c2F)c1OC(F)F` (single isomer, unassigned) [Ex. 233b], which IC50 is on record?
Its IC50 is 6.11 nM.

With `NC1(COc2nc(N3CC4CCC(C3)N4)c3cc(Cl)c(-c4cc(O)cc5ccccc45)c(F)c3n2)CCC(O)C1` (stereo not shown) [Example 108, 4-(2-((1-amino-3-hydroxycyclopentyl)methoxy)-4-(3,8-diazabicyclo[3.2.1]octan-3-yl)-6-chloro-8-fluoroquinazolin-7-yl)naphthalen-2-ol, TFA] as the compound, how does the IC50 read?
The IC50 was 3280 nM.

`Cc1cccc2cc(O)cc(-c3c(F)cc4c(N5CC6CC[C@@](C)(C5)N6)nc(OC[C@@]56CCCN5C[C@H](F)C6)nc4c3F)c12` (single isomer, unassigned) [Ex. 179b] was tested. Which IC50 did it give?
The IC50 was 727 nM.

Which IC50 does the source give for `C[C@]12CCC(CN(c3nc(OC[C@@]45CCCN4C[C@H](F)C5)nc4c(F)c(-c5cc(Cl)cc6cccc(Cl)c56)c(F)cc34)C1)N2` (single isomer, unassigned) [Ex. 184] here?
Its IC50 is 4720 nM.

How did the IC50 turn out when `Nc1cc(-c2c(Cl)cc3c(N4CC5CCC(C4)N5)nc(OC[C@@]45CCCN4C[C@H](F)C5)nc3c2F)c(C(F)(F)F)c(Cl)n1` (single isomer, unassigned) [Ex. 155a] was run?
The IC50 was 330 nM.

With `C[C@]12CC[C@H](CN(c3nc(OC[C@H]4CCN(C5CCCCC5O)C4)nc4c(F)c(-c5cc(O)cc6ccccc56)c(Cl)cc34)C1)N2` (stereo partly drawn) [Example 120, 4-(6-chloro-8-fluoro-2-(((3S)-1-(2-hydroxy-cyclohexyl)pyrrolidin-3-yl)methoxy)-4-((1S,5R)-1-methyl-3,8-diazabicyclo [3.2.1]octan-3-yl)quinazolin-7-yl)naphthalen-2-ol, TFA] as the compound, how does the IC50 read?
The IC50 was 1440 nM.

For `C[C@]12CCC(CN(c3nc(OC[C@]4(CNCC(F)F)CC4(F)F)nc4c(F)c(-c5cc(O)cc6cccc(Cl)c56)c(F)cc34)C1)N2` (single isomer, unassigned) [Ex. 221], which IC50 is on record?
The IC50 was 1110 nM.

`Cc1cc(N)nc(-c2c(Cl)cc3c(N4CC5CCC(C4)N5)nc(OC[C@@]45CCCN4[C@H](CO)CC5)nc3c2F)c1C(F)(F)F` [Ex. 150] was tested. Which IC50 did it give?
The IC50 was 2.04 nM.

With `Nc1cc2cccc(Cl)c2c(-c2c(F)cc3c(N4CC5CCC(C4)N5)nc(OC[C@@]45CCCN4C[C@H](F)C5)nc3c2F)n1` (single isomer, unassigned) [Ex. 189b] as the compound, how does the IC50 read?
Its IC50 is 11100 nM.

How did the IC50 turn out when `C[C@]12CCC(CN(c3nc(OC[C@@H]4CC[C@H]5CC(F)(F)CCN45)nc4c(F)c(-c5cc(O)cc6cccc(Cl)c56)c(F)cc34)C1)N2` (single isomer, unassigned) [Ex. 175b] was run?
The IC50 was 11100 nM.

How did the IC50 turn out when `Cc1cc2[nH]ncc2c(-c2c(F)cc3c(N4CC5CCC(C)(C4)N5)nc(OCC4(CN5CCOCC5)CC4)nc3c2F)c1OC(F)(F)F` (stereo in doubt) [Ex. 125, 4-((1-(((6,8-difluoro-7-(6-methyl-5-(trifluoromethoxy)-1H-indazol-4-yl)-4-((1S,5R)-1-methyl-3,8-diazabicyclo[3.2.1]octan-3-yl)quinazolin-2-yl)oxy)methyl)cyclopropyl)methyl) morpholine] was run?
Its IC50 is 148 nM.

How did the IC50 turn out when `Cc1cc(N)nc(-c2c(Cl)cc3c(N4CC5CC(O)C(C4)N5)nc(OC[C@@]45CCCN4C[C@H](F)C5)nc3c2F)c1C(F)(F)F` (single isomer, unassigned) [249a] was run?
Its IC50 is 351 nM.

Which IC50 does the source give for `Cc1nc(N)cc(-c2c(F)cc3c(N4C[C@H]5CC[C@@](C)(C4)N5)nc(OCC4(CN5CCOCC5)CC4)nc3c2F)c1C(F)(F)F` (single isomer, unassigned) [Ex. 139b] here?
The IC50 was 287 nM.

Which IC50 does the source give for `Cc1cc2cn(C)nc2c(-c2c(F)cc3c(N4C[C@H]5CC[C@@H](C4)N5)nc(OC[C@@]45CCCN4C[C@H](F)C5)nc3c2F)c1C(F)(F)F` [251b, 4-((1R,5)-3,8-diazabicyclo[3.2.1]octan-3-yl)-7-(2,5-dimethyl-6-(trifluoromethyl)-2H-indazol-7-yl)-68-difluoro-2-(((2R,7aS)-2-fluorotetrahydro-1H-pyrrolizin-7a(5H)-yl)methoxy)quinazoline] here?
Its IC50 is 935 nM.

`Cc1cc2[nH]nc(C)c2c(-c2c(F)cc3c(N4CC5CCC(C4)N5)nc(OC[C@@]45CCCN4C[C@H](F)C5)nc3c2F)c1OC(F)F` (single isomer, unassigned) [Ex. 233a] was tested. Which IC50 did it give?
The IC50 was 1070 nM.

`C[C@]12CCC(CN(c3nc(OC[C@@]45CCCN4C[C@H](F)C5)nc4c(F)c(-c5cc(O)cc6cccc(C(F)F)c56)c(F)cc34)C1)N2` (single isomer, unassigned) [Ex. 181a] was tested. Which IC50 did it give?
The IC50 was 3.97 nM.

How did the IC50 turn out when `Cc1nc2[nH]nc(C)c2c(-c2c(F)cc3c(N4C[C@H]5CC[C@@H](C4)N5)nc(OC[C@@]45CCCN4C[C@H](F)C5)nc3c2F)c1C(F)(F)F` (single isomer, unassigned) [250a] was run?
Its IC50 is 400 nM.

For `Cc1cc(N)nc(-c2c(Cl)cc3c(N4CC5CCC(C4)N5)nc(OC[C@@]45CCCN4C[C@H](F)C5)nc3c2F)c1CC(F)(F)F` (single isomer, unassigned) [Ex. 157b], which IC50 is on record?
The IC50 was 2940 nM.

Which IC50 does the source give for `C#Cc1c(F)ccc2ccc(F)c(-c3c(F)cc4c(N5CC6CC[C@@](C)(C5)N6)nc(OC[C@@]56CCCN5C[C@H](F)C6)nc4c3F)c12` (single isomer, unassigned) [246a] here?
The IC50 was 41.3 nM.
